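1) Cells in 96-well plates. 2) Compound, 48 h, 5 concentrations. 3) Linear interpolation between surrounding doses. 4) Unreached endpoint = highest concentration. The concentration for 50% growth inhibition is given as GI50. TGI: total growth inhibition.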
Legend:
Test in all cases: NCI-60 cell line screen, 48 h
M14 melanoma = system: M14 melanoma
NCI-H23 lung = system: NCI-H23 lung
UACC-62 melanoma = system: UACC-62 melanoma
SN12C renal = system: SN12C renal
IGROV1 ovarian = system: IGROV1 ovarian
OVCAR-8 ovarian = system: OVCAR-8 ovarian
MDA-MB-435 = system: MDA-MB-435
UACC-257 melanoma = system: UACC-257 melanoma
MALME-3M melanoma = system: MALME-3M melanoma
SNB-75 CNS = system: SNB-75 CNS

| SMILES | TGI (M14 melanoma) | TGI (NCI-H23 lung) | TGI (UACC-62 melanoma) | TGI (SN12C renal) | TGI (IGROV1 ovarian) | TGI (OVCAR-8 ovarian) | GI50 (MDA-MB-435) | TGI (MDA-MB-435) | GI50 (M14 melanoma) | GI50 (NCI-H23 lung) | GI50 (UACC-257 melanoma) | TGI (UACC-257 melanoma) | GI50 (UACC-62 melanoma) | GI50 (SN12C renal) | GI50 (IGROV1 ovarian) | GI50 (OVCAR-8 ovarian) | GI50 (MALME-3M melanoma) | TGI (MALME-3M melanoma) | GI50 (SNB-75 CNS) | TGI (SNB-75 CNS) |
| --- | --- | --- | --- | --- | --- | --- | --- | --- | --- | --- | --- | --- | --- | --- | --- | --- | --- | --- | --- | --- |
| Cc1nc2ccccc2c(=O)n1/N=C(\N=Nc1ccccc1Cl)c1ccccc1Cl | > 100 µM | > 100 µM | > 100 µM | > 100 µM | > 100 µM | > 100 µM |  |  |  |  |  |  |  |  |  |  |  |  |  |  |
| COc1ccc(Nc2cnc3cc(N)cc(N)c3n2)cc1 | 28 µM | 7.65 µM | 28.8 µM | 37 µM | 37.7 µM | 29.4 µM | 16.7 µM | 33.8 µM | 14.5 µM | 2.02 µM | 19.4 µM | 45.9 µM | 14.6 µM | 15.6 µM | 17.6 µM | 14.1 µM | 15.2 µM | 39.4 µM |  |  |
| CC(=O)Oc1c(C(=O)[O-])cc(C(C)C)cc1C(C)C.CC(=O)Oc1c(C(=O)[O-])cc(C(C)C)cc1C(C)C.CC(=O)Oc1c(C(=O)[O-])cc(C(C)C)cc1C(C)C.CC(=O)Oc1c(C(=O)[O-])cc(C(C)C)cc1C(C)C.[Cu+2].[Cu+2] | > 100 µM | 52.7 µM | 39.9 µM | 65.9 µM | > 100 µM | > 100 µM | 3.18 µM | 9.16 µM | 49.3 µM | 20.1 µM | 18.2 µM | 36.9 µM | 18.6 µM | 19.8 µM | 30.4 µM | 30.6 µM |  |  | 34.3 µM | 77.6 µM |
| COc1ccccc1CNCCN1C(=O)c2ccc3c4c(ccc(c24)C1=O)C(=O)N(CCNCc1ccccc1OC)C3=O | 0.378 µM | 0.394 µM | 3.39 µM | 0.701 µM | 0.549 µM | 0.505 µM |  |  | 0.189 µM | 0.19 µM | 0.196 µM | 0.387 µM | 1.77 µM | 0.248 µM | 0.203 µM | 0.215 µM | 0.386 µM | 1.55 µM | 1.4 µM | 2.83 µM |
| O=NN(CCCl)C(=O)NC1CCC(CC(=O)O)CC1 (stereo not drawn) | > 100 µM | > 100 µM | > 100 µM | > 100 µM | > 100 µM | > 100 µM |  |  |  |  |  | > 100 µM |  |  |  |  |  | > 100 µM |  | > 100 µM |
| COCCN(CCOC)c1nc(-c2ccccc2)nc2ccccc12 | 56.6 µM | 54.7 µM | 34.9 µM | > 100 µM | 93.6 µM | > 100 µM | 21.9 µM | 55.8 µM | 13.9 µM | 26.6 µM | 17.7 µM | 36.6 µM | 18.2 µM | 29.1 µM | 25.2 µM | 33.7 µM | 20.2 µM | 39.9 µM |  |  |
| CC12OC(=O)C(C#N)C1(C)C1C(=O)CCCC12 (stereo not drawn) | > 100 µM | > 100 µM | > 100 µM | > 100 µM | > 100 µM | > 100 µM |  |  |  |  |  |  |  |  |  |  |  | > 100 µM |  | > 100 µM |
| Nc1nc(=S)c2c(ncn2CCO)[nH]1 | > 100 µM |  | > 100 µM | > 100 µM | > 100 µM | > 100 µM |  |  |  |  |  | > 100 µM |  |  |  |  |  | > 100 µM |  | > 100 µM |

Source: PubChem BioAssay (NCI)
